How the values were obtained:
[1] = tested on: de novo pancreatic ductal adenocarcinoma (PDAC); test: Survival of transgenic KPC mice bearing de novo PDAC under long-term treatment; assay type: in vivo
Experimental: FIG. 1A is a graph showing the percent survival of transgenic Kras-LSL^[…], p53-LSL^172H, Pdx-1-cre (KPC) mice bearing de novo pancreatic ductal adenocarcinoma (PDAC) treated with gemcitabine (GEM).
FIG. 1 presents data showing that iRGD therapy increases CD8^+ T cells in transgenic PDAC mice. […] We randomized mice to therapy with intraperitoneal (IP) gemcitabine alone (100 mg/kg/injection), intravenous (IV) iRGD alone (100 μg/injection) or gemcitabine co-administered with iRGD. Mice were followed with high resolution ultrasound and manual palpation until at least one tumor nodule of 4-5 mm became both palpable and visible on consecutive ultrasound exams. At this point, the mice were randomized to one of the three treatment arms. Treatment was given every 4 days until the animals were sacrificed for having signs of distress. […] Of note, while there was a difference in median survival favoring the combination (71 days versus 84 days), there was a more striking difference in the tail of the survival curve such that survival at 180 days was 0% for gemcitabine alone versus 40% in the iRGD+gemcitabine group.

[2] = tested on: Tregs in KPC-luc tumors; test: Targeting of Tregs in KPC-luc PDAC by intravenously injected FAM-iRGD; assay type: in vivo, mice
Experimental: FIG. 2H is an image showing that intravenously injected FAM-iRGD (green) targets CD4^+ (magenta) Foxp3^+ (red) Tregs in KPC-luc PDAC (white arrowheads). Some iRGD-targeted Foxp3^+ cells were CD4^neg (black arrowheads). Blue=DAPI. Scale bar, 50 μm.
Based on the finding that Tregs in PDAC, but not those in the spleen expressed αv integrins and NPR-1 (the receptors of iRGD), studies were performed to determine whether iRGD selectively targets PDAC-infiltrating Tregs. Intravenously injected FAM-iRGD (green) targets CD4^+ (magenta) Foxp3^+ (red) Tregs in KPC-luc PDAC (See FIG. 2H, white arrowheads). Some iRGD-targeted Foxp3^+ cells were CD4^neg (black arrowheads). Blue, DAPI; scale bar, 50 μm.

| Molecule | survival at 180 days ([1]; 180 days) [%] | median survival ([1]; treatment every 4 days) [days] | targeting of CD4+ Foxp3+ Tregs in KPC-luc PDAC [2] |
| --- | --- | --- | --- |
| Nc1ccn([C@@H]2O[C@H](CO)[C@@H](O)C2(F)F)c(=O)n1 [gemcitabine] | 0 | 71 | – |
| FAM-iRGD: fluorescein (FAM)-labeled iRGD | – | – | targets |
